Assay results published in the supplement of paper PMC11061612.

Assays:
[1] = compound: C=CCn1c(=O)c2cnc(Nc3ccc(N4CCN(C)CC4)cc3)nc2n1-c1cccc(C(C)(C)O)n1 [AZD1775]; conditions: max 3 µM
In short: (§1)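 Viability was measured with CellTiter-Glo 2.0 luminescence after 72 hours of dosing at a final DMSO of typically 0.2%, and scaled between blank-well and DMSO-well means. Beforehand, cancer cell lines sat 24 hours at 37°C and 5% CO2 in 1536-well plates in 7.5 μl DMEM/F12 or RPMI with 10% FBS. A non-linear mixed effects model fitted two-parameter logistic curves to the dose responses. The single-agent IC50 comes from these fits.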

[2] = compound: CS(=O)(=O)CCNCc1ccc(-c2ccc3ncnc(Nc4ccc(OCc5cccc(F)c5)c(Cl)c4)c3c2)o1 [Lapatinib]; conditions: max 10 µM
In short: as §1

[3] = compound: C[C@@H](c1ccc2nccn2c1)n1nnc2ncc(-c3cnn(C)c3)nc21 [Savolitinib]; conditions: max 1 µM
In short: as §1

[4] = compound: Cc1nc(-c2cn3c(n2)-c2ccc(-c4cnn(C(C)(C)C(N)=O)c4)cc2OCC3)n(C(C)C)n1 [Taselisib]; conditions: max 10 µM
In short: as §1

[5] = compound: CC(=O)O[C@H]1C(=O)[C@@]2(C)[C@H]([C@H](OC(=O)c3ccccc3)[C@]3(O)C[C@H](OC(=O)[C@H](O)[C@@H](NC(=O)c4ccccc4)c4ccccc4)C(C)=C1C3(C)C)[C@]1(OC(C)=O)CO[C@@H]1C[C@@H]2O [Paclitaxel]; conditions: max 3 µM
In short: as §1

[6] = compound: C[C@@H](Oc1cc(-c2cnn(C3CCNCC3)c2)cnc1N)c1c(Cl)ccc(F)c1Cl [Crizotinib]; conditions: max 10 µM
In short: as §1

[7] = compound: CN(C)CCCOc1ccc(-c2ccc3ncc4c(c3c2)n(C2CCOCC2)c(=O)n4C)cn1 [AZD0156]; conditions: max 3 µM
In short: as §1

[8] = compound: CC1(C)CCC(CN2CCN(c3ccc(C(=O)NS(=O)(=O)c4ccc(NCC5CCOCC5)c([N+](=O)[O-])c4)c(Oc4cnc5[nH]ccc5c4)c3)CC2)=C(c2ccc(Cl)cc2)C1 [Venetoclax]; conditions: max 1 µM
In short: as §1

[9] = compound: C1CC(C1)(C(=O)[O-])C(=O)[O-].N.N.[Pt+2] [Carboplatin]; conditions: max 10 µM
In short: as §1

[10] = compound: Cc1c2c(nn1C)CSCc1cc(n(C)n1)CSc1cc(c3ccccc3c1)OCCCc1c(C(=O)O)n(C)c3c-2c(Cl)ccc13 [AZD5991]; conditions: max 1 µM
In short: as §1

[11] = compound: C[C@@H]1COCCN1C2=NC(=NC(=C2)C3(CC3)[S@](=N)(=O)C)C4=C5C=CNC5=NC=C4 [AZD6738]; conditions: max 10 µM
In short: as §1

[12] = compound: C[C@@H](Nc1cc(F)cc(F)c1)c1cc(C(=O)N(C)C)cc2c(=O)cc(N3CCOCC3)oc12 [AZD8186]; conditions: max 10 µM
In short: as §1

[13] = compound: CCc1c2c(nc3ccc(O)cc13)-c1cc3c(c(=O)n1C2)COC(=O)[C@]3(O)CC [SN-38]; conditions: max 0.3 µM
In short: as §1

[14] = compound: CC(=O)c1c(C)c2cnc(Nc3ccc(N4CCNCC4)cn3)nc2n(C2CCCC2)c1=O [Palbociclib]; conditions: max 10 µM
In short: as §1

[15] = compound: O=C(c1cc(Cc2n[nH]c(=O)c3ccccc23)ccc1F)N1CCN(C(=O)C2CC2)CC1 [Olaparib]; conditions: max 10 µM
In short: as §1

[16] = compound: COc1cc(Nc2ncc3c(n2)-c2ccc(Cl)cc2C(c2c(F)cccc2OC)=NC3)ccc1C(=O)O [Alisertib]; conditions: max 10 µM
In short: as §1

[17] = compound: CC1=C(C(=CC=C1)Cl)NC(=O)C2=CN=C(S2)NC3=CC(=NC(=N3)C)N4CCN(CC4)CCO [Dasatinib]; conditions: max 2 µM
In short: as §1

[18] = compound: N#Cc1cnc(Nc2cc(NC[C@H]3CNCCO3)c(C(F)(F)F)cn2)cn1 [SRA737]; conditions: max 10 µM
In short: as §1

[19] = compound: Cc1cc2ncnn2cc1Nc1ncc2c(n1)n(C1CCOCC1)c(=O)n2C [AZD7648]; conditions: max 10 µM
In short: as §1

[20] = compound: COc1cccc2c1C(=O)c1c(O)c3c(c(O)c1C2=O)C[C@@](O)(C(=O)CO)C[C@@H]3O[C@H]1C[C@H](N)[C@H](O)[C@H](C)O1 [Doxorubicin]; conditions: max 1 µM
In short: as §1

[21] = compound: CCN(CCO)CCCOc1ccc2c(Nc3cc(CC(=O)Nc4cccc(F)c4)[nH]n3)ncnc2c1 [AZD2811]; conditions: max 1 µM
In short: as §1

[22] = compound: COc1nnc2ccc(N3CCC(c4ccc(OCCN5CCN(C)C(=O)[C@H]5C)cc4)CC3)nn12 [AZD5153]; conditions: max 1 µM
In short: as §1

[23] = compound: COc1cc2ncnc(Nc3ccc(F)c(Cl)c3)c2cc1OCCCN1CCOCC1 [Gefitinib]; conditions: max 10 µM
In short: as §1

[24] = compound: COc1cccc(OCCCN)c1-c1cc(Nc2cnc(C#N)cn2)n[nH]1 [Prexasertib]; conditions: max 1 µM
In short: as §1

[25] = compound: CC(C)n1c(=O)n(C)c2cnc3cc(F)c(-c4ccc(OCCCN5CCCCC5)nc4)cc3c21 [AZD1390]; conditions: max 0.3 µM
In short: as §1

[26] = compound: CC1=CN2[C@@H](C1)C=NC3=CC(=C(C=C3C2=O)OC)OCCCCCOC4=C(C=C5C(=C4)N=C[C@@H]6CC(=CN6C5=O)C)OC [SG3199]; conditions: max 0.001 µM
In short: as §1

[27] = compound: Cn1cnc2c(F)c(Nc3ccc(Br)cc3Cl)c(C(=O)NOCCO)cc21 [Selumetinib]; conditions: max 10 µM
In short: as §1

[28] = compound: C1CN(CCC1(C(=O)N[C@@H](CCO)C2=CC=C(C=C2)Cl)N)C3=NC=NC4=C3C=CN4 [AZD5363]; conditions: max 10 µM
In short: as §1

[29] = compound: COc1cc([C@@H]2c3cc4c(cc3[C@@H](O[C@@H]3O[C@@H]5CO[C@@H](C)O[C@H]5[C@H](O)[C@H]3O)[C@H]3COC(=O)[C@H]23)OCO4)cc(OC)c1O [Etoposide]; conditions: max 10 µM
In short: as §1

[30] = compound: Nc1ccn([C@@H]2O[C@H](CO)[C@@H](O)C2(F)F)c(=O)n1 [Gemcitabine]; conditions: max 0.3 µM
In short: as §1

[31] = compound: O=C(Nc1ccc2[nH]nc(-c3ccncc3)c2c1)[C@@H]1CCN(CC(=O)N2CCN(c3ccc(-c4ncccn4)cc3)CC2)C1; conditions: max 5 µM
In short: as §1

[32] = compound: CN(CC[C@H](CSC1=CC=CC=C1)NC2=C(C=C(C=C2)S(=O)(=O)NC(=O)C3=CC=C(C=C3)N4CCC(CC4)[C@H](C5=CC=CC=C5C6=CC=C(C=C6)Cl)O)S(=O)(=O)C(F)(F)F)CCO [AZD4320]; conditions: max 1 µM
In short: as §1

[33] = compound: O=c1[nH]cc(F)c(=O)[nH]1 [5-Fluorouracil]; conditions: max 20 µM
In short: as §1

[34] = compound: NC1(c2ccc(-c3nc4ccn5c(=O)[nH]nc5c4cc3-c3ccccc3)cc2)CCC1 [MK-2206]; conditions: max 10 µM
In short: as §1

[35] = compound: CC(=O)Nc1cccc(-n2c(=O)n(C3CC3)c(=O)c3c(Nc4ccc(I)cc4F)n(C)c(=O)c(C)c32)c1 [Trametinib]; conditions: max 1 µM
In short: as §1

| Cell Line | IC50, cell viability 72 h [1] | IC50, cell viability 72 h [2] | IC50, cell viability 72 h [3] | IC50, cell viability 72 h [4] | IC50, cell viability 72 h [5] | IC50, cell viability 72 h [6] | IC50, cell viability 72 h [7] | IC50, cell viability 72 h [8] | IC50, cell viability 72 h [9] | IC50, cell viability 72 h [10] | IC50, cell viability 72 h [11] | IC50, cell viability 72 h [12] | IC50, cell viability 72 h [13] | IC50, cell viability 72 h [14] | IC50, cell viability 72 h [15] | IC50, cell viability 72 h [16] | IC50, cell viability 72 h [17] | IC50, cell viability 72 h [18] | IC50, cell viability 72 h [19] | IC50, cell viability 72 h [20] | IC50, cell viability 72 h [21] | IC50, cell viability 72 h [22] | IC50, cell viability 72 h [23] | IC50, cell viability 72 h [24] | IC50, cell viability 72 h [25] | IC50, cell viability 72 h [26] | IC50, cell viability 72 h [27] | IC50, cell viability 72 h [28] | IC50, cell viability 72 h [29] | IC50, cell viability 72 h [30] | IC50, cell viability 72 h [31] | IC50, cell viability 72 h [32] | IC50, cell viability 72 h [33] | IC50, cell viability 72 h [34] | IC50, cell viability 72 h [35] |
| --- | --- | --- | --- | --- | --- | --- | --- | --- | --- | --- | --- | --- | --- | --- | --- | --- | --- | --- | --- | --- | --- | --- | --- | --- | --- | --- | --- | --- | --- | --- | --- | --- | --- | --- | --- |
| D-263MG (Glioblastoma) | 2490 nM | > 10000 nM | > 1000 nM | > 10000 nM | 76.1 nM | > 10000 nM | > 3000 nM | > 1000 nM | > 10000 nM | > 1000 nM | 7850 nM | > 10000 nM | 114 nM | > 10000 nM | > 10000 nM | 7080 nM | > 2000 nM | > 10000 nM | > 10000 nM | 858 nM | > 1000 nM | > 1000 nM | > 10000 nM | 125 nM | > 300 nM | > 1 nM | > 10000 nM | > 10000 nM | > 10000 nM | > 300 nM | > 5000 nM | > 1000 nM | > 20000 nM | > 10000 nM | > 1000 nM |
| EFM-19 (Breast Carcinoma) | 2090 nM | > 10000 nM | > 1000 nM | 564 nM | 26.9 nM | > 10000 nM | > 3000 nM | > 1000 nM | > 10000 nM | > 1000 nM | > 10000 nM | > 10000 nM | 288 nM | > 10000 nM | > 10000 nM | > 10000 nM | > 2000 nM | > 10000 nM | > 10000 nM | > 1000 nM | > 1000 nM | > 1000 nM | > 10000 nM | > 1000 nM | > 300 nM | > 1 nM | > 10000 nM | > 10000 nM | > 10000 nM | > 300 nM | > 5000 nM | > 1000 nM | > 20000 nM | > 10000 nM | > 1000 nM |
